Measured values: PubChem BioAssay AID2060600 (Molecular Pharmacology Branch, DTP, NCI, 2025)

Test system: 996289-038-R-J1-PDC complex spheroid viability
Test: Anticancer human tumor 996289-038-R-J1-PDC patient-derived colon adenocarcinoma cell line growth inhibition [CLK]
Details: for IC50: curve of first compound; for viability, T/C: stronger effect = lower value
Excerpt: A high-throughput screen of multi-cell type tumor spheroids was designed to identify active combinations of […] and targeted small molecules. Complex spheroids include a stromal component modeled by human endothelial cells (HUVEC) and fibroblasts modeled by human mesenchymal stem cells (MSCs). The concentration ranges selected for each drug and investigational agent were based upon clinically achievable concentrations if the clinical Cmax of the agent was known.
Compounds. The drugs and investigational agents: cirtuvivint (SM08502; NSC835563), CC-671 (NSC850746), vemurafenib (NSC761431), tapotoclax (NSC804041), sotorasib (NSC818433), adagrasib (NSC831453), MRTX-1133 (NSC836407), BAY2416964 (NSC825713), copanlisib (NSC816437), inavolisib (NSC800729), abemaciclib (NSC768073), osimertinib (NSC779217), entinostat (NSC756642), eltanexor (KPT-8602, NSC794443), venetoclax (NSC766270), ceralasertib (NSC777638), bortezomib (NSC756655), olaparib (NSC753686), talazoparib (NSC767125), alisertib (NSC759677), peposertib (NSC802822), gemcitabine (NSC613327), 5-fluorouracil (NSC19893), SN-38 (NSC673596), oxaliplatin (NSC266046), paclitaxel (NSC125973), and doxorubicin (NSC123127), were obtained from the National Cancer Institute (NCI) Developmental Therapeutics Program Chemical Repository. The FDA-approved anticancer drug set is available from the Developmental Therapeutics Program at https://dtp.cancer.gov/organization/dscb/obtaining/available plates.htm. […] The stock solutions were prepared in dimethyl sulfoxide (DMSO, Sigma-Aldrich, St. Louis, MO, cat. D2650), except for the platinum complexes which were prepared in saline (Quality Biological, Gaithersburg, MD, cat. 114-055-101), at 800-fold the tested concentration and stored at -70 degrees C prior to their use. All drugs and investigational agents were tested over a range starting from a high concentration at or near the clinical Cmax and decreasing in half-log increments. If the clinical Cmax for an agent had not been determined, the highest concentration tested was 10 microM.
Cell Culture. All cells were maintained in an incubator at 37 degrees C and 5% CO2 with 95% humidity. The PDC lines were cultured according to standard operating procedures established by the NCI PDMR. Briefly, all PDCs were thawed and cultured in Matrigel-coated flasks prepared with a working solution of 1X Ham's F-12 nutrient mix, without supplementation (Invitrogen, Waltham, MA, cat. 11765054), 100 U/mL penicillin-streptomycin (Invitrogen, cat. 15140122), and 2.5% Matrigel (Corning Inc., Corning, NY, cat. 354248) for the first three passages. The 947758-054-R-J2-PDC line was cultured in 6B/Colon 1A media, which includes advanced DMEM/F-12 (Thermo Fisher Scientific, cat. 12634028), 10 mM HEPES (Thermo Fisher Scientific, cat. 15630080), 1X GlutaMAX supplement (Thermo Fisher Scientific, cat. 35050061), 0.1 mg/mL primocin (InvivoGen, cat. ant-pm-2), 10% defined fetal bovine serum, heat inactivated (HyClone Laboratories Inc., cat. SH30070.03HI), 1.25 mM N-Acetyl-L-cysteine (Sigma-Aldrich, cat. A9165), 10 mM nicotinamide (Sigma-Aldrich, cat. N0636), 1X B-27 supplement (Thermo Fisher Scientific, cat. 17504044), 1X N-2 supplement (Thermo Fisher Scientific, cat. 17502048), and 10 microM Y-27632 dihydrochloride (Tocris Bioscience, cat. 1254). The 876862-298-R-J1-PDC was cultured in 6E media, which includes all 6B/Colon 1A media components plus 50% L-WRN conditioned media (ATCC, cat. CRL-3276), 50 ng/mL recombinant human EGF recombinant protein (hEGF; Thermo Fisher Scientific, cat. PHG0311), 10 ng/mL recombinant human fibroblast growth factor 10 (hGFG-10; PeproTech, cat. 100-26), 1 ng/mL recombinant human fibroblast growth factor 2 (hFGF-2; PeproTech, cat. 100-18B), and 1 µM prostaglandin E2 (PGE2; Tocris, cat. 2296). The 227483-062-R1-J1-PDC line was cultured in Panc media, containing all 6E components except hFGF-2, with the addition of 500 nM SB-431542 (Selleckchem, cat. S1067) and 10 nM gastrin (Tocris, cat. 3006). […]

[1] = second compound 0.0316 µM, first compound 0.0316 µM
[2] = second compound 0.0316 µM, first compound 0.1 µM
[3] = second compound 0.0316 µM, first compound 0.316 µM
[4] = second compound 0.0316 µM, first compound 1 µM
[5] = second compound 0.0316 µM, first compound 3.16 µM
[6] = second compound 0.0316 µM, first compound 10 µM
[7] = second compound 0.1 µM, first compound 0.0316 µM
[8] = second compound 0.1 µM, first compound 0.1 µM
[9] = second compound 0.1 µM, first compound 0.316 µM
[10] = second compound 0.1 µM, first compound 1 µM
[11] = second compound 0.1 µM, first compound 3.16 µM
[12] = second compound 0.1 µM, first compound 10 µM
[13] = second compound 0.316 µM, first compound 0.0316 µM
[14] = second compound 0.316 µM, first compound 0.1 µM
[15] = second compound 0.316 µM, first compound 0.316 µM
[16] = second compound 0.316 µM, first compound 1 µM
[17] = second compound 0.316 µM, first compound 3.16 µM
[18] = second compound 0.316 µM, first compound 10 µM
[19] = second compound 1 µM, first compound 0.0316 µM
[20] = second compound 1 µM, first compound 0.1 µM
[21] = second compound 1 µM, first compound 0.316 µM
[22] = second compound 1 µM, first compound 1 µM
[23] = second compound 1 µM, first compound 3.16 µM
[24] = second compound 1 µM, first compound 10 µM
[25] = second compound 3.16 µM, first compound 0.0316 µM
[26] = second compound 3.16 µM, first compound 0.1 µM
[27] = second compound 3.16 µM, first compound 0.316 µM
[28] = second compound 3.16 µM, first compound 1 µM
[29] = second compound 3.16 µM, first compound 3.16 µM
[30] = second compound 3.16 µM, first compound 10 µM
[31] = second compound 10 µM, first compound 0.0316 µM
[32] = second compound 10 µM, first compound 0.1 µM
[33] = second compound 10 µM, first compound 0.316 µM
[34] = second compound 10 µM, first compound 1 µM
[35] = second compound 10 µM, first compound 3.16 µM
[36] = second compound 10 µM, first compound 10 µM
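Note: spheroids exposed to the agents for 7 days before readout.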

C#Cc1c(F)ccc2cc(O)cc(-c3ncc4c(N5CC6CCC(C5)N6)nc(OCC56CCCN5CC(F)C6)nc4c3F)c12 (stereo unspecified) + CN1CCN(c2cc(C(=O)Nc3cc4cc(-c5cnn(C)c5)ccc4cn3)ccn2)CC1
IC50 (second compound 0.0316 µM): 965 nM | IC50 (second compound 0.1 µM): 589 nM | IC50 (second compound 0.316 µM): 92.3 nM | IC50 (second compound 1 µM): < 31.6 nM | IC50 (second compound 3.16 µM): < 31.6 nM | IC50 (second compound 10 µM): < 31.6 nM | viability, T/C [1]: 102% | viability, T/C [2]: 92.2% | viability, T/C [3]: 64.3% | viability, T/C [4]: 52.9% | viability, T/C [5]: 34.8% | viability, T/C [6]: 28.4% | viability, T/C [7]: 85.5% | viability, T/C [8]: 71.2% | viability, T/C [9]: 58.1% | viability, T/C [10]: 45% | viability, T/C [11]: 28.6% | viability, T/C [12]: 22.2% | viability, T/C [13]: 58.7% | viability, T/C [14]: 50.2% | viability, T/C [15]: 35.9% | viability, T/C [16]: 26.7% | viability, T/C [17]: 20.7% | viability, T/C [18]: 16.6% | viability, T/C [19]: 4.83% | viability, T/C [20]: 4.1% | viability, T/C [21]: 3.5% | viability, T/C [22]: 2.81% | viability, T/C [23]: 2.14% | viability, T/C [24]: 2.96% | viability, T/C [25]: 1.47% | viability, T/C [26]: 1.31% | viability, T/C [27]: 1.59% | viability, T/C [28]: 0.95% | viability, T/C [29]: 0.67% | viability, T/C [30]: 0.45% | viability, T/C [31]: 0.72% | viability, T/C [32]: 0.61% | viability, T/C [33]: 1.23% | viability, T/C [34]: 0.99% | viability, T/C [35]: 0.36% | viability, T/C [36]: 0.65%

C=C(F)C(=O)N1CCN(c2nc(OCC3CCCN3C)nc3c2CCN(c2cccc4cccc(Cl)c24)C3)CC1CC#N (stereo unspecified) + CN1CCN(c2cc(C(=O)Nc3cc4cc(-c5cnn(C)c5)ccc4cn3)ccn2)CC1
IC50 (second compound 0.0316 µM): 4600 nM | IC50 (second compound 0.1 µM): 4410 nM | IC50 (second compound 0.316 µM): 2880 nM | IC50 (second compound 1 µM): < 31.6 nM | IC50 (second compound 3.16 µM): < 31.6 nM | IC50 (second compound 10 µM): < 31.6 nM | viability, T/C [1]: 98.2% | viability, T/C [2]: 119% | viability, T/C [3]: 97.9% | viability, T/C [4]: 104% | viability, T/C [5]: 73.4% | viability, T/C [6]: 1.4% | viability, T/C [7]: 97.1% | viability, T/C [8]: 97.5% | viability, T/C [9]: 101% | viability, T/C [10]: 95.5% | viability, T/C [11]: 70.1% | viability, T/C [12]: 0.64% | viability, T/C [13]: 66.5% | viability, T/C [14]: 79.6% | viability, T/C [15]: 70.9% | viability, T/C [16]: 64.8% | viability, T/C [17]: 48.9% | viability, T/C [18]: 0.51% | viability, T/C [19]: 6.67% | viability, T/C [20]: 6.95% | viability, T/C [21]: 6.76% | viability, T/C [22]: 6.89% | viability, T/C [23]: 1.53% | viability, T/C [24]: 0.54% | viability, T/C [25]: 0.79% | viability, T/C [26]: 0.78% | viability, T/C [27]: 1.18% | viability, T/C [28]: 0.87% | viability, T/C [29]: 1.8% | viability, T/C [30]: 0.29% | viability, T/C [31]: 0.4% | viability, T/C [32]: 0.7% | viability, T/C [33]: 1.4% | viability, T/C [34]: 0.36% | viability, T/C [35]: 0.43% | viability, T/C [36]: 0.8%

CC(CO)NC(=O)c1cc(-c2ccc(Cl)cc2)nn(-c2cnn(C)c2)c1=O (stereo unspecified) + CN1CCN(c2cc(C(=O)Nc3cc4cc(-c5cnn(C)c5)ccc4cn3)ccn2)CC1
IC50 (second compound 0.0316 µM): > 10000 nM | IC50 (second compound 0.1 µM): > 10000 nM | IC50 (second compound 0.316 µM): 8010 nM | IC50 (second compound 1 µM): < 31.6 nM | IC50 (second compound 3.16 µM): < 31.6 nM | IC50 (second compound 10 µM): < 31.6 nM | viability, T/C [1]: 105% | viability, T/C [2]: 96.2% | viability, T/C [3]: 95.3% | viability, T/C [4]: 107% | viability, T/C [5]: 102% | viability, T/C [6]: 82.3% | viability, T/C [7]: 107% | viability, T/C [8]: 104% | viability, T/C [9]: 89.8% | viability, T/C [10]: 83.9% | viability, T/C [11]: 84.9% | viability, T/C [12]: 66.9% | viability, T/C [13]: 75% | viability, T/C [14]: 70.2% | viability, T/C [15]: 67.3% | viability, T/C [16]: 68.4% | viability, T/C [17]: 69.2% | viability, T/C [18]: 45.5% | viability, T/C [19]: 8.41% | viability, T/C [20]: 6.34% | viability, T/C [21]: 6.26% | viability, T/C [22]: 6.91% | viability, T/C [23]: 6.32% | viability, T/C [24]: 4.74% | viability, T/C [25]: 1.59% | viability, T/C [26]: 0.78% | viability, T/C [27]: 2.09% | viability, T/C [28]: 2.22% | viability, T/C [29]: 0.69% | viability, T/C [30]: 1.38% | viability, T/C [31]: 1.12% | viability, T/C [32]: 0.98% | viability, T/C [33]: 0.62% | viability, T/C [34]: 0.94% | viability, T/C [35]: 0.67% | viability, T/C [36]: 0.38%
